Patent publication US20240316047A1, “INHIBITORS OF RNA HELICASE DHX9 AND USES THEREOF” (ACCENT THERAPEUTICS, INC., priority 2022, published 2024)

Molecular target: Human recombinant DHX9 protein (Homo sapiens (Human), UniProt Q08211)
Assay: DHX9 ATPase assay (ADP-Glo)
Type: biochemical
Settings: for IC50: read-out: DHX9 Biochemical Inflection Point

Chain of Human recombinant DHX9 protein (Q08211 whole entry): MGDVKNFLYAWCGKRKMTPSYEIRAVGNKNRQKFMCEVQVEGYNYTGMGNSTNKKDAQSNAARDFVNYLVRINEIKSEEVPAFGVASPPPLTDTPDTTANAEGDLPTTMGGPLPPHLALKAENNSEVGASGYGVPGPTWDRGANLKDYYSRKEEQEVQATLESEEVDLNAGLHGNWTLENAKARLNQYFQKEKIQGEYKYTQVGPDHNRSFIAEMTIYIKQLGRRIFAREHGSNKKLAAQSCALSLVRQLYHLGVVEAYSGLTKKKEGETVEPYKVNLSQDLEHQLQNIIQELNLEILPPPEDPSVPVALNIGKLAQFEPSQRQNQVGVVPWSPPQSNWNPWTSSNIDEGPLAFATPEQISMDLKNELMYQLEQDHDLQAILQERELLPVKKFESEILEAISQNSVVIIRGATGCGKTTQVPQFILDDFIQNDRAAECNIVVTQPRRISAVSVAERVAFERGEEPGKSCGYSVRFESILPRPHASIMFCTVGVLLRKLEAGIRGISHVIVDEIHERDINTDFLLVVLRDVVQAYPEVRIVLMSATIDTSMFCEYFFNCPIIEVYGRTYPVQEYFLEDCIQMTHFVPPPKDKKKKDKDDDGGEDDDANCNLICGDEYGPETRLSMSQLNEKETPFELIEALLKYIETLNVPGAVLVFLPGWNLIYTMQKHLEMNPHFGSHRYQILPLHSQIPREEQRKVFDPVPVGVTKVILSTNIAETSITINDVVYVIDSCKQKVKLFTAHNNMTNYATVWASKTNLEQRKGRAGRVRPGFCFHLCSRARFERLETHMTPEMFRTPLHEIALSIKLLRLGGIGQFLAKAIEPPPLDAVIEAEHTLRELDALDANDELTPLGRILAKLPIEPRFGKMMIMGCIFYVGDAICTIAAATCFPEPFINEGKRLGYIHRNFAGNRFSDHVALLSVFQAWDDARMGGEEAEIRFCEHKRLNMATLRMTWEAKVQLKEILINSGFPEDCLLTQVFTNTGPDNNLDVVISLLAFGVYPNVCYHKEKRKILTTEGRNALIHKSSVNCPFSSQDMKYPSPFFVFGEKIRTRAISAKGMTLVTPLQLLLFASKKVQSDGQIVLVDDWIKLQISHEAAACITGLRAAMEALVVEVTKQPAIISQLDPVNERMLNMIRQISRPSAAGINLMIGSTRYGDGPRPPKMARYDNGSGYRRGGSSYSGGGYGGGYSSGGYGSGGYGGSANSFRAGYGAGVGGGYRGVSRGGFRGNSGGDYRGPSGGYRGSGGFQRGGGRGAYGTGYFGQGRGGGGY

Structure (SMILES) | DHX9 Biochemical Max Inhibition | IC50
CS(=O)(=O)Nc1cc(Cl)cc(NC(=O)c2c[nH]c(-c3ccccc3)n2)c1 [Example 6] | 52.5% | 91.7 nM
Cc1cc(C(=O)Nc2cc(Cl)cc(NS(=O)(=O)C3CC3)c2)cn1-c1ccc(N2CCOCC2)cn1 [Example 247] | 70% | 131 nM
Cc1sc(C(=O)Nc2cc(Cl)cc(NS(C)(=O)=O)c2)cc1-c1ncc(OC2CCC2)cn1 [Example 452] | 80.5 | 32.9 nM
Cc1cc(C(=O)Nc2cc(Cl)cc(NS(C)(=O)=O)c2)cn1-c1ncc(N2CCOC2=O)cn1 [Example 417] | 70.1 | 33.1 nM
CS(=O)(=O)Nc1cc(Cl)cc(NC(=O)c2cccc(-c3ccnc(Cl)c3)c2)c1 [Example 102, N-(3-chloro-5-(methylsulfonamido)phenyl)-3-(2-chloropyridin-4-yl)benzamide] | 61.8% | 762 nM
COc1cnn(-c2csc(C(=O)Nc3cc(Cl)cc(NS(C)(=O)=O)c3)c2)c1 [Example 435] | 79.1 | 8.7 nM
CS(=O)(=O)Nc1cc(Cl)cc(NC(=O)c2cnn(-c3ncccc3OCc3cccc(Cl)c3)c2)c1 [Example 70] | 78.9% | 8.5 nM
CN1CCN(c2cnc(-n3cc(C(=O)Nc4cc(Cl)cc(NS(C)(=O)=O)c4)cn3)nc2)CC1=O [Example 183] | 67.1% | 20.1 nM
CS(=O)(=O)Nc1cc(Cl)cc(NC(=O)c2cnn(-c3ccccc3COc3cncc(F)c3)c2)c1 [Example 428] | 68.9 | 70.8 nM
CC(=O)N1CCN(c2ccnc(-n3cc(C(=O)Nc4cc(Cl)cc(NS(C)(=O)=O)c4)cn3)c2)CC1 [Example 148, 1-(4-(4-acetylpiperazin-1-yl)pyridin-2-yl)-N-(3-chloro-5-(methylsulfonamido)phenyl)-1H-pyrazole-4-carboxamide] | 63.3% | 18.5 nM
Cn1cc(C(=O)Nc2cc(Cl)cc(NS(C)(=O)=O)c2)cc1-c1ccc(N2CCC2)cn1 [Example 538] | 66.9 | 9.2 nM
CS(=O)(=O)Nc1cc(Br)cc(NC(=O)c2cnn(-c3ccccc3C(O)C(F)(F)F)c2)c1 (stereo not shown) [Example 103, N-(3-bromo-5-(methylsulfonamido)phenyl)-1-(2-(2,2,2-trifluoro-1-hydroxyethyl)phenyl)-1H-pyrazole-4-carboxamide] | 49.5% | 452 nM
CS(=O)(=O)Nc1cc(Cl)cc(NC(=O)c2cnn(C3CCOCC3)c2)c1 [Example 131, N-(3-chloro-5-(methylsulfonamido)phenyl)-1-(tetrahydro-2H-pyran-4-yl)-1H-pyrazole-4-carboxamide] | 55.9% | 151 nM
CS(=O)(=O)Nc1cc(Cl)cc(NC(=O)c2cnn(-c3ncccc3OCc3ccccc3F)c2)c1 [Example 189] | 72.1% | 32.7 nM
Cn1cc(C(=O)Nc2cc(Cl)cc(NS(C)(=O)=O)c2)cc1-c1ncc(N2CCCC2)cn1 [Example 520] | 70.8 | 13.7 nM
Cc1cc(C#N)cnc1-c1cc(C(=O)Nc2cc(Cl)cc(NS(C)(=O)=O)c2)sc1C [Example 376] | 64.1% | 
Cc1sc(C(=O)Nc2cc(Cl)cc(NS(C)(=O)=O)c2)cc1-c1ncc(N2CC(F)(F)C2)cn1 [Example 510] | 83.7 | 8.2 nM
CS(=O)(=O)Nc1cc(Cl)cc(NC(=O)c2cnn(-c3ncc(N4CCOCC4)cc3OCc3cccnc3)c2)c1 [Example 194] | 64.3% | 6.8 nM
CP(C)(=O)c1cccnc1-n1cc(C(=O)Nc2cc(Cl)cc(NS(C)(=O)=O)c2)cn1 [Example 201] | 66.1% | 184 nM
Cc1cc(C(=O)Nc2cc(Br)cc(NS(C)(=O)=O)c2)cn1C1CCCCC1 [Example 85, N-(3-bromo-5-(methylsulfonamido)phenyl)-1-cyclohexyl-5-methyl-1H-pyrrole-3-carboxamide] | 59.5% | 99 nM
CCS(=O)(=O)Nc1cc(Cl)cc(NC(=O)c2cc(-c3ncc(F)cc3F)n(C)c2)c1 [Example 543] | 60.2 | 48.6 nM
Cn1cc(C(=O)Nc2cc(Cl)cc(NS(C)(=O)=O)c2)cc1-c1ncccc1OCc1cncc(F)c1 [Example 174, N-(3-chloro-5-(methylsulfonamido)phenyl)-5-(3-((5-fluoropyridin-3-yl)methoxy)pyridin-2-yl)-1-methyl-1H-pyrrole-3-carboxamide] | 75.8% | 1.8 nM
CS(=O)(=O)Nc1cc(Cl)cc(NC(=O)c2cnn([C@H]3CCC[C@H]3c3ccccc3)c2)c1 (single isomer, unassigned) [Example 260] | 50% | 
CS(=O)(=O)Nc1cc(Br)cc(NC(=O)c2cnn(-c3cccc(C#N)c3)c2)c1 [Example 52] | 37.9% | 198 nM
CCS(=O)(=O)Nc1cc(Cl)cc(NC(=O)c2cc(-c3ccccn3)c(C)s2)c1 [Example 28] | 68.3% | 4.2 nM
Cc1cc(C(=O)Nc2cc(Cl)cc(NS(C)(=O)=O)c2)cn1-c1ccccc1 [Example 129, N-(3-chloro-5-(methylsulfonamido)phenyl)-5-methyl-1-phenyl-1H-pyrrole-3-carboxamide] | 66.4% | 
CCS(=O)(=O)Nc1cc(Cl)cc(NC(=O)c2cc(-c3ccc(N4CC(F)(F)C4)cn3)n(C)c2)c1 [Example 403] | 84.5 | 186 nM
Cc1cccnc1-n1cc(C(=O)Nc2cc(Br)cc(NS(C)(=O)=O)c2)cc1C [Example 45] | 67.4% | 16.4 nM

Other lines, results leading:

DHX9 Biochemical Max Inhibition | IC50 | Structure (SMILES)
73.6 | 13.1 nM | Cn1cc(C(=O)Nc2cc(Cl)cc(NS(C)(=O)=O)c2)cc1-c1ncc(F)cc1C#N [Example 546]
99.9 | 30 nM | Cn1cc(C(=O)Nc2cc(Cl)cc(NS(C)(=O)=O)c2)cc1-c1ccc(N2CCN(C(=O)C3CCC3)CC2)cn1 [Example 593]
80.8 | 1.9 nM | Cc1cc(C(=O)Nc2cc(Cl)cc(NS(C)(=O)=O)c2)cn1-c1ncc(OC2COC2)cn1 [Example 669]
60 | 37.1 nM | CCS(=O)(=O)Nc1cc(Cl)cc(NC(=O)c2cc(-c3ncc(OC(C)C)cn3)c(C)s2)c1 [Example 565]
71.8 | 14.7 nM | Cc1cc(C(=O)Nc2cc(Cl)cc(NS(C)(=O)=O)c2)cn1-c1ncc([S+](C)[O-])cn1 (stereo not shown) [Example 657]
67.5 | 24.6 nM | Cc1sc(C(=O)Nc2cc(Cl)cc(NS(C)(=O)=O)c2)cc1-c1ncc(F)cc1-c1ccn(C)c(=O)c1 [Example 605]
66.6 | 59.2 nM | Cc1sc(C(=O)Nc2cc(Cl)cc(NS(C)(=O)=O)c2)cc1-c1ncc(C2CCN(CC(F)(F)F)CC2)cc1F [Example 618]
78.6 | 3.2 nM | CN1CCN(c2csc(C(=O)Nc3cc(Cl)cc(NS(C)(=O)=O)c3)c2)CC1=O [Example 661]
74.8 | 5.9 nM | Cc1sc(C(=O)Nc2cc(Cl)cc(NS(C)(=O)=O)c2)cc1-c1ccc(N2CCN(C(=O)C3CC3)CC2)cn1 [Example 590, N-(3-chloro-5-methanesulfonamidophenyl)-4-[5-(4-cyclopropanecarbonylpiperazin-1-yl)pyridin-2-yl]-5-methylthiophene-2-carboxamide]
84.3 | 1.6 nM | CS(=O)(=O)Nc1cc(Cl)cc(NC(=O)c2cc(CO)n(-c3ncccc3OCc3cncc(F)c3)c2)c1 [Example 723]
68.1 | 119 nM | CS(=O)(=O)Nc1cc(Cl)cc(NC(=O)c2cc3c(s2)CCC3Oc2cccnc2)c1 (stereo not shown) [Example 687]
80.4 | 19.7 nM | Cc1nc(COc2cc(F)cnc2-c2cc(C(=O)Nc3cc(Cl)cc(NS(C)(=O)=O)c3)cn2C)cs1 [Example 724]
69.7 | 84.7 nM | CS(=O)(=O)Nc1cc(Cl)cc(NC(=O)c2cnn(-c3ncc(F)cc3OCc3cnco3)c2)c1 [Example 719]
69.1 | 37 nM | Cn1cc(C(=O)Nc2cc(Cl)cc(NS(C)(=O)=O)c2)cc1-c1ncc(F)cc1-c1cncc(F)c1 [Example 604, N-(3-chloro-5-methanesulfonamidophenyl)-5-{5,5′-difluoro-[3,3′-bipyridin]-2-yl}-1-methylpyrrole-3-carboxamide]
78.4 | 121 nM | Cc1cc(C(=O)Nc2cc(Cl)cc(NS(C)(=O)=O)c2)cn1-c1ncc(F)cc1-c1cncc(F)c1 [Example 666]
70.8 | 366 nM | CC(C)(C)OC(=O)N1CC(n2cc(C(=O)Nc3cc(Cl)cc(NS(C)(=O)=O)c3)cc2-c2ncc(F)cn2)C1 [Example 645]
68.8 | 6.8 nM | Cc1sc(C(=O)Nc2cc(Cl)cc(NS(C)(=O)=O)c2)cc1-c1ncc(OC(C)C(=O)O)cn1 (stereo not shown) [Example 671]
67.3 | 19.8 nM | CN1CC[C@H](Oc2cnc(-c3cc(C(=O)Nc4cc(Cl)cc(NS(C)(=O)=O)c4)cn3CC(F)(F)F)nc2)C1 [Example 642]
70.5 | 13.9 nM | CN1CC(Oc2cnc(-c3cc(C(=O)Nc4cc(Cl)cc(NS(C)(=O)=O)c4)cn3CC(F)(F)F)c(F)c2)C1 [Example 638]
76.2 | 17.7 nM | Cn1cc(C(=O)Nc2cc(Cl)cc(NS(C)(=O)=O)c2)cc1-c1ccc(F)cn1 [Example 575]
79.7 | 76.1 nM | Cn1cc(C(=O)Nc2cc(Cl)cc(NS(C)(=O)=O)c2)cc1-c1ncc(C(F)(F)F)cc1F [Example 554]
59 | 7 nM | CN1CC[C@@H](Oc2cnc(-c3cc(C(=O)Nc4cc(Cl)cc(NS(C)(=O)=O)c4)cn3C)c(F)c2)C1 [Example 640]
